Laboratory results from patent US6509369B2, “Anti-inflammatory compounds” (Ortho-McNeil Pharmaceutical, Inc., priority 1997, dated 2003).

Columns and labels:
[1] = system: human progesterone receptor (hPR); test: human progesterone receptor binding assay (displacement of 3(H) R5020 Promegestone)
Description: A human progesterone receptor binding assay was performed in order to determine selectivity of the compounds, as follows. Human progesterone receptors were prepared from either insect cells (SF21) infected with baculovirus hPR A, or from a breast cancer cell line, T47D, which expresses high levels of endogenous hPR. The receptor binding reactions, with or without test compounds, were set up in 96-well microtiter plates which were previously siliconized with SIGMACOTE. The binding components, 3(H) R5020 Promegestone, a high affinity ligand for the progesterone receptors, glycerol/molybdate-containing buffer and unlabeled compounds were added to the wells using a combination of BIOMEK laboratory automation system and repeat pipettes. After overnight incubation, the samples were precipitated with polyethylene glycol and filtered through Whatman GF/F paper using a TOMTEK cell harvester. The filter mate with 96 samples were bound to a solid-phase scintillant and directly counted in the BETAPLATE counter. Only those compounds that were active in the human glucocorticoid receptor assay set forth in Example 30 were used for progesterone receptor binding to determine cross-reactivity profiles, if any. The activity of test compounds to displace 3(H) R5020 binding to hPR is expressed as percent inhibition at the two concentrations, 10^−6 and 10^−5 Molar.

[2] = target: T1, human glucocorticoid receptor (hGR) (Homo sapiens, UniProt P04150); test: human glucocorticoid receptor binding assay (displacement of 3(H) Triamcinolone acetonide)
T1 construct: made in house; host or cells: Sf21 insect cells infected with baculovirus hGR, OR IM9 lymphoblast cell line (endogenous hGR)
T1 sequence (P04150 1-777): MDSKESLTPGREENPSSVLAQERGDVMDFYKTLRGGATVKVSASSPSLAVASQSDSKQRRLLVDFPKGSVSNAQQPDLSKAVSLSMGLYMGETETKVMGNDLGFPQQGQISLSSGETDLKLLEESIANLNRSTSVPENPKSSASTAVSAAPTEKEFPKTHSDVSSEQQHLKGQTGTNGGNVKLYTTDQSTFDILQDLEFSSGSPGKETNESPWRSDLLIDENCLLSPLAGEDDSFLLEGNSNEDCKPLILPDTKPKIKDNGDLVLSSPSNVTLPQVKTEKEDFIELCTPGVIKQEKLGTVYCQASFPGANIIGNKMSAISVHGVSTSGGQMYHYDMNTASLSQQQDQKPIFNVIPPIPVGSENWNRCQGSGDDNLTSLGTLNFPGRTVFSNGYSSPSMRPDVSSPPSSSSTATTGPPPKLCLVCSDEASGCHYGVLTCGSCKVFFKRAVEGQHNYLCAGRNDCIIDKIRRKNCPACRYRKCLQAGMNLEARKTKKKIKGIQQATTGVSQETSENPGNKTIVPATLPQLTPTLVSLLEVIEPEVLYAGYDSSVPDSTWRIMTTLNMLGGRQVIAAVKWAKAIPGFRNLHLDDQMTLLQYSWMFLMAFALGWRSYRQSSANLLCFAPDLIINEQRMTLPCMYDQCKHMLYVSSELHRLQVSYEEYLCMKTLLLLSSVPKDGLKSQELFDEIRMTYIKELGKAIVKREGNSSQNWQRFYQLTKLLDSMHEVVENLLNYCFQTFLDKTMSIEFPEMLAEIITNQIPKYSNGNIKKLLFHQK

[3] = system: oxazolone-induced ear swelling (MOCH) in albino male CD-1 mice; test: mouse oxazolone-induced contact hypersensitization (MOCH) ear swelling; assay type: in vivo; conditions: for inhibition in vivo at 1 mg: topical to mouse ear, one hour after oxazolone challenge, ear biopsy weight at 24 hours, read-out: Oxazolone Ear Swelling (MOCH) % inhibition vs. Vehicle at 1 mg; for topical antiinflammatory activity in the oxazolone model (in words): mouse ear; for Oxazolone Ear swelling % Inhibition vs. Vehicle: topical mouse ear; for topical antiinflammatory activity in the oxazolone model (in words) / dose-related activity in the oxazolone model (in words): topical; for dose-related activity in the oxazolone model (in words): doses 0.1-3%
How it was run: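 Male CD-1 mice aged 7–9 weeks were sensitised on the abdomen with 3% oxazolone on Day 0 and challenged on Day 5 with 2% oxazolone on the left ear. Compounds in ethanol/propylene glycol 70:30 were applied topically to that ear 1 h after challenge. At 24 h, the weight difference between 7 mm left and right ear biopsies gave the measure of inhibition.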

[4] = system: TPA-induced ear edema in albino male CD1 mice; test: TPA (phorbol ester)-induced ear edema; assay type: in vivo; conditions: dose 1%, topical mouse ear, 5.5 hours after TPA
Description: Several triphenylpropanamide compounds of this invention, having varying affinities for the human glucocorticoid receptor, were tested for topical antiinflammatory activity in mouse ear inflammation models. […] Compounds having receptor affinities closer to hydrocortisone were as nearly active as hydrocortisone in suppressing mouse oxazolone-induced contact hypersensitization (MOCH) and phorbol ester-induced ear edema. The in vivo studies of this example were conducted as follows.
Albino male CD1 mice, 7-9 weeks old were used in this example. A 0.005% (w/v) TPA or 20% (w/v) arachidonic acid (AA) solution was made in acetone. A 20 μl volume of the TPA or AA was applied to the dorsal left ear of the mouse. Compounds of this invention were placed in a composition containing ethanol/propylene glycol at a ratio of 70:30 were applied to the left ear of each mouse in an amount of 20 μl immediately after application of the TPA or AA. The right ear was not treated. The mice were sacrificed by carbon dioxide inhalation 5.5 hours after administration of TPA and one hour after administration of AA, the left and right ears were removed and a 7 mm biopsy was removed from each ear and weighed. The difference in biopsy weights between the right and left ears was calculated. Antiinflammatory effects of compounds were evident as an inhibition of the increase in ear weight.

| hPR % inh 10 μM [1] [%] | melting point [°C] | IC50 [2] [nM] | SMILES | topical antiinflammatory activity in the oxazolone model (in words) [3] | % Inhibition of TPA Ear Edema vs. Vehicle [4] [%] | other results |
| --- | --- | --- | --- | --- | --- | --- |
| −0.2 | 146 to 147 | 890 | O=C(Cc1ccccc1)NCC(c1ccccc1)C(c1ccccc1)c1ccccc1 (stereo not drawn) [Compound 1] |  |  |  |
|  | 87.5 to 89.7 | 21 | O=C(Cc1ccccc1)NCC(c1ccccc1)C(c1ccc(F)cc1)c1ccc(F)cc1 (stereo not drawn) [Compound 15] | moderate topical activity |  | inhibition in vivo at 1 mg [3]: 47% |
| 21 | 122.2 to 123.5 | 57 | COc1ccccc1CCC(=O)NCC(c1ccc(Cl)cc1)C(c1ccccc1)c1ccccc1 (stereo not drawn) [Compound 21] |  |  |  |
| 28.3 |  | 8 | O=C(Cc1cccs1)NCC(c1ccccc1)C(c1ccccc1)c1ccccc1 (stereo not drawn) [Compound 29, N-(2-thiophrne)acetyl-2,3,3-triphenylpropylamine] | equiactive with hydrocortisone | 64.9 | Oxazolone Ear swelling % Inhibition vs. Vehicle ([3]; Experiment 1, dose 0.1%): 4.3%; Oxazolone Ear swelling % Inhibition vs. Vehicle ([3]; Experiment 1, dose 0.3%): 34.7%; Oxazolone Ear swelling % Inhibition vs. Vehicle ([3]; Experiment 1, dose 1%): 49.9%; Oxazolone Ear swelling % Inhibition vs. Vehicle ([3]; Experiment 1, dose 3%): 66.5%; dose-related activity in the oxazolone model (in words) [3]: inhibited ear swelling in a dose-dependent manner |
|  |  | 7 | Cc1ccc(CC(=O)NCC(c2ccccc2)C(c2ccc(F)cc2)c2ccc(F)cc2)s1 (stereo not drawn) [Compound 32] | equiactive with hydrocortisone | 60.0 | Oxazolone Ear swelling % Inhibition vs. Vehicle ([3]; Experiment 2, dose 0.1%): 11.2%; Oxazolone Ear swelling % Inhibition vs. Vehicle ([3]; Experiment 2, dose 0.3%): 18.95%; Oxazolone Ear swelling % Inhibition vs. Vehicle ([3]; Experiment 2, dose 1%): 31.45%; Oxazolone Ear swelling % Inhibition vs. Vehicle ([3]; Experiment 2, dose 3%): 36.5%; dose-related activity in the oxazolone model (in words) [3]: inhibited ear swelling in a dose-dependent manner |
|  | 138.2 to 139.9 | 723 | O=C(Cc1cccs1)NCC(c1cccs1)C(c1ccccc1)c1ccccc1 (stereo not drawn) [Compound 46] |  |  | inhibition in vivo at 1 mg [3]: 4% |
|  |  |  | C[C@]12CCC(=O)C=C1CC[C@@H]1[C@@H]2[C@@H](O)C[C@@]2(C)[C@H]1CC[C@]2(O)C(=O)CO [hydrocortisone, reference compound] |  | 80.6 | Oxazolone Ear swelling % Inhibition vs. Vehicle ([3]; Experiment 1, dose 1%): 78.9%; Oxazolone Ear swelling % Inhibition vs. Vehicle ([3]; Experiment 2, dose 1%): 58.2% |
